In the NIST ThermoML archive (doi:10.1016/j.fluid.2012.11.013):

Settings: Liquid, Vibrating tube method

CCC(C)(C)C [2,2-dimethylbutane]
mass density [kg/m3]
Settings | 283.15 K | 288.15 K | 293.15 K | 298.15 K | 303.15 K | 308.15 K | 313.15 K | 318.15 K | 323.15 K | 328.15 K
100 kPa | 658.57 | 653.96 | 649.25 | 644.46 | 639.75 | 634.86 | 630.04 | 625.06 | 620.03 | –
2000 kPa | 660.76 | 656.25 | 651.6 | 646.95 | 642.26 | 637.48 | 632.76 | 627.98 | 623.17 | 618.2
5000 kPa | 664.07 | 659.62 | 655.12 | 650.7 | 646.07 | 641.54 | 637.06 | 632.33 | 627.74 | 623.02
7000 kPa | 666.19 | 661.74 | 657.45 | 653.04 | 648.58 | 644.04 | 639.66 | 635.14 | 630.61 | 626.02
10000 kPa | 669.19 | 664.88 | 660.66 | 656.38 | 652.04 | 647.69 | 643.44 | 639.02 | 634.54 | 630.26
20000 kPa | 678.5 | 674.51 | 670.51 | 666.62 | 662.53 | 658.58 | 654.67 | 650.69 | 646.65 | 642.58
30000 kPa | 686.83 | 683.05 | 679.25 | 675.66 | 671.8 | 668.08 | 664.53 | 660.78 | 656.94 | 653.14
40000 kPa | 694.31 | 690.77 | 687.12 | 683.71 | 680.03 | 676.55 | 673.1 | 669.72 | 666.02 | 662.51
50000 kPa | 701.27 | 697.81 | 694.34 | 691.09 | 687.56 | 684.38 | 680.94 | 677.73 | 674.2 | 670.88
60000 kPa | 707.71 | 704.32 | 701.07 | 697.88 | 694.57 | 691.41 | 688.22 | 685.05 | 681.7 | 678.64
65000 kPa | 710.76 | 707.61 | 704.25 | 701.14 | 697.92 | 695.23 | 691.61 | 688.58 | 685.35 | 682.59

CC(C)C(C)C [2,3-dimethylbutane]
mass density [kg/m3]
Settings | 283.15 K | 288.15 K | 293.15 K | 298.15 K | 303.15 K | 308.15 K | 313.15 K | 318.15 K | 323.15 K | 328.15 K
100 kPa | 670.76 | 666.22 | 661.58 | 657 | 652.31 | 647.61 | 642.78 | 638.08 | 633.18 | 628.26
2000 kPa | 672.72 | 668.35 | 663.76 | 659.21 | 654.73 | 650.13 | 645.28 | 640.8 | 636.04 | 631.14
5000 kPa | 675.8 | 671.5 | 667.04 | 662.62 | 658.23 | 653.82 | 649.18 | 644.77 | 640.11 | 635.61
7000 kPa | 677.77 | 673.5 | 669.15 | 664.81 | 660.39 | 656.12 | 651.62 | 647.3 | 642.73 | 638.3
10000 kPa | 680.57 | 676.37 | 672.12 | 667.97 | 663.63 | 659.42 | 655.04 | 650.89 | 646.47 | 642.27
20000 kPa | 689.26 | 685.39 | 681.36 | 677.49 | 673.54 | 669.63 | 665.61 | 661.8 | 657.61 | 653.85
30000 kPa | 697.12 | 693.43 | 689.64 | 686.05 | 682.15 | 678.59 | 674.74 | 671.23 | 667.06 | 663.86
40000 kPa | 704.27 | 700.77 | 697.12 | 693.73 | 690.01 | 686.72 | 683.04 | 679.58 | 676.08 | 672.8
50000 kPa | 710.91 | 707.56 | 704.07 | 700.78 | 697.16 | 694.02 | 690.56 | 687.47 | 684.13 | 680.68
60000 kPa | 717.08 | 713.85 | 710.4 | 707.39 | 703.95 | 700.83 | 697.4 | 694.5 | 691.19 | 688.05
65000 kPa | 720.09 | 716.77 | 713.55 | 710.52 | 707.12 | 704.06 | 700.79 | 697.71 | 694.58 | 691.47

CCCC(C)C [2-methylpentane]
mass density [kg/m3]
Settings | 283.15 K | 288.15 K | 293.15 K | 298.15 K | 303.15 K | 308.15 K | 313.15 K | 318.15 K | 323.15 K | 328.15 K
100 kPa | 662.38 | 657.8 | 653.28 | 648.63 | 643.96 | 639.25 | 634.49 | 629.65 | 624.76 | 619.82
2000 kPa | 664.49 | 659.95 | 655.38 | 651 | 646.27 | 641.65 | 637.11 | 632.32 | 627.48 | 622.75
5000 kPa | 667.45 | 663.16 | 658.76 | 654.32 | 649.83 | 645.36 | 640.96 | 636.32 | 631.78 | 627.22
7000 kPa | 669.44 | 665.17 | 660.81 | 656.61 | 652.12 | 647.77 | 643.31 | 638.86 | 634.39 | 629.87
10000 kPa | 672.23 | 668.05 | 663.8 | 659.71 | 655.36 | 651.1 | 646.93 | 642.49 | 638.24 | 633.86
20000 kPa | 680.99 | 677.13 | 673.11 | 669.38 | 665.3 | 661.38 | 657.45 | 653.46 | 649.56 | 645.47
30000 kPa | 689.02 | 685.21 | 681.56 | 677.93 | 673.98 | 670.38 | 666.76 | 663.07 | 659.4 | 655.55
40000 kPa | 696.18 | 692.59 | 689.05 | 685.62 | 682.03 | 678.4 | 675.03 | 671.49 | 667.99 | 664.47
50000 kPa | 702.82 | 699.4 | 695.95 | 692.66 | 689.27 | 685.81 | 682.68 | 679.17 | 675.91 | 672.49
60000 kPa | 708.98 | 705.61 | 702.39 | 699.21 | 695.84 | 692.62 | 689.53 | 686.27 | 683.16 | 679.93
65000 kPa | 711.97 | 708.71 | 705.49 | 702.34 | 699.14 | 695.97 | 692.86 | 689.7 | 686.56 | 683.41

CCC(C)CC [3-methylpentane]
mass density [kg/m3]
Settings | 283.15 K | 288.15 K | 293.15 K | 298.15 K | 303.15 K | 308.15 K | 313.15 K | 318.15 K | 323.15 K | 328.15 K
100 kPa | 673.34 | 668.91 | 664.28 | 659.73 | 655.07 | 650.44 | 645.7 | 640.93 | 636.14 | 631.22
2000 kPa | 675.33 | 670.93 | 666.4 | 661.91 | 657.33 | 652.85 | 648.1 | 643.46 | 638.83 | 634.03
5000 kPa | 678.2 | 673.95 | 669.49 | 665.13 | 660.71 | 656.28 | 651.77 | 647.27 | 642.73 | 638.2
7000 kPa | 680.08 | 675.9 | 671.54 | 667.22 | 662.86 | 658.61 | 654.13 | 649.71 | 645.26 | 640.84
10000 kPa | 682.8 | 678.66 | 674.41 | 670.25 | 666 | 661.77 | 657.53 | 653.27 | 648.88 | 644.64
20000 kPa | 691.21 | 687.28 | 683.39 | 679.53 | 675.49 | 671.68 | 667.66 | 663.74 | 659.72 | 655.85
30000 kPa | 698.81 | 695.19 | 691.45 | 687.73 | 683.96 | 680.42 | 676.56 | 672.89 | 669.28 | 665.6
40000 kPa | 705.94 | 702.32 | 698.72 | 695.4 | 691.63 | 688.33 | 684.59 | 681.17 | 677.73 | 674.39
50000 kPa | 712.39 | 708.77 | 705.44 | 702.25 | 698.64 | 695.51 | 692.01 | 688.56 | 685.39 | 682.22
60000 kPa | 718.5 | 715.04 | 711.72 | 708.63 | 705.24 | 702.1 | 698.74 | 695.68 | 692.42 | 689.42
65000 kPa | 721.33 | 718.14 | 714.81 | 711.62 | 708.41 | 705.28 | 702.04 | 699.05 | 695.87 | 692.79
